Results taken from patent publication US20250049737A1, “Lauflumide and derivatives thereof for treating chronic fatigue syndrome and myalgic encephalomyelitis/chronic fatigue syndrome (ME/CFS)” (NLS Pharmaceutics AG, priority 2021, published 2025).

Tests used:
impulsivity = assay: Impulsivity; type: in vivo; conditions: three doses tested; compared with modafinil
[1] = target: T1, Relaxin-3 (RXFP3) (h) (agonist radioligand) (Homo sapiens, UniProt Q9NSD7); assay: RXFP3 assay (Eurofins/leadHunter GPCR Biosensor cAMP Hunter); type: cell-based
T1 sequence (Q9NSD7 1-469): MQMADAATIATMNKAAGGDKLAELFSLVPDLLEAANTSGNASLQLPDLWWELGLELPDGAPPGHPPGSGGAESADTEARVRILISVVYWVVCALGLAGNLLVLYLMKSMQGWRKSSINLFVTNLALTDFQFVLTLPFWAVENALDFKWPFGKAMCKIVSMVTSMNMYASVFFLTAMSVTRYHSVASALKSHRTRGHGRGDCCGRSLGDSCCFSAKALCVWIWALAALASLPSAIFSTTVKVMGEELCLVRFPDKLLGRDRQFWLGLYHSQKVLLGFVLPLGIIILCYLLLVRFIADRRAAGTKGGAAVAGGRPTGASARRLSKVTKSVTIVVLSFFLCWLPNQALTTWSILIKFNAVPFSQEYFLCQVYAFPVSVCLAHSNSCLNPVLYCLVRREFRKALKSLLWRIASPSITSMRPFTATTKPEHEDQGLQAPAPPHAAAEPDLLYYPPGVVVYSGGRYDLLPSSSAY
Protocol: Lauflumide is found to weakly bind with RXFP3 receptors (Study US073-0006869-Q Eurofins/leadHunter 8/1/19; unpublished data) (Table 1).
In these assays' compounds were tested in agonist and antagonist mode with the GPCR Biosensor Assays and match to this design:
1. cAMP Hunter cell lines were expanded from freezer stocks according to standard procedures.
2. Cells were seeded in a total volume of 20 μL into white walled, 384-well microplates and incubated at 37° C. for the appropriate time prior to testing.
3. cAMP modulation was determined using the DiscoverX HitHunter cAMP XS+ assay.
1. For agonist determination, cells were incubated with sample in the presence of EC80 forskolin to induce response.
2. Media was aspirated from cells and replaced with 15 μL 2:1 HBSS/10 mM Hepes: cAMP XS+ Ab reagent.
3. […]
2. Microplates were read following signal generation with a PerkinElmer Envision™ instrument for chemiluminescent signal detection.
1. Compound activity was analyzed using CBIS data analysis suite (ChemInnovation, CA).
5. For Gi agonist mode assays, percentage activity is calculated using the following formula: […]
8. For Gi antagonist or negative allosteric mode assays, percentage inhibition is calculated using the following formula: % Inhibition=100%×(mean RLU of test sample−mean RLU of EC80 control)/(mean RLU of forskolin positive control−mean RLU of […]

NC(=O)C[S@@+]([O-])C(c1ccc(F)cc1)c1ccc(F)cc1 [Lauflumide, 2-[(R)-((bis(4-fluorophenyl)methane)sulfinyl)]acetamide]
Impulsivity (impulsivity): improved impulsivity at the three doses tested with a better significant response than modafinil
% Inhibition at 10^−5M [1]: 23.9%
